This is an account of results in patent publication US5236942A, “5-aryl-4-alkyl-3H-1,2,4-triazole-3-thiones useful in the treatment of Altzheimer's dementia” (Merrell Dow Pharmaceuticals Inc., priority 1992, dated 1993).

Series [1] has as its system hippocampal high affinity choline uptake. The following applies: mice; cited from earlier work.
A further series deals with memory in mice. Conditions: versus normal vehicle-treated control mice; cited from earlier work.
Series [2] has as its system time dependent memory deficit in rats. As to the kind of experiment: Working memory in the T-maze, rats with 0- or 60-second delay. Conditions: for Number of errors (5 = chance response), 0-Second Delay / Number of errors (5 = chance response), 60-Second Delay: ten trials, mean ± SEM, n = 12. The format is in vivo, Male Sprague-Dawley rats. The procedure:
The activity of these compounds in enhancing memory can also be confirmed in experiments that study working memory in rats by evaluating the acquisition of alternation behavior in a T-maze. The maze used has the shape of a T with alleys 16 cm wide and side walls 20 cm high, the main arm being 65 cm long and the two side arms 45 cm long. Male Sprague-Dawleyrats are maintained on a 23 hour food deprivation schedule and are tested each day (Monday-Friday), each trial in the maze consisting of two runs. The rat starts at the end of the main arm and runs to the choice point where it must turn either left or right. The first is a forced run where one arm of the T-maze has been blocked off at the choice point. The remaining arm has a bowl of sweetened condensed milk as reward. On the second run the rat has a free choice of arms and learns by experience that food reward is to be found down the arm not visited on the first run. Trials are run at 30-second intervals, and the arm choice on the forced run is varied at random between trials. Arm entry is defined by the rat's placing all four paws in the arm, and incorrect selection of the arm is scored as an error. […] Impairment of performance is achieved for testing the compound of this invention in two different ways. […] The table compares the number of incorrect responses by rats tested in trials wherein there is no delay after the forced run and trials wherein there is a 60-second delay. […] For this test, the number of errors expected by random response, i.e., the selection of the correct arm 50% of the time, is 5.

Series [3] deals with carrier that mediates choline transport ([3H] hemicholinium-3 binding in rat brain membranes). As to the kind of experiment: [3H] hemicholinium-3 binding in rat brain membranes (cortex) after i.p. dosing of rats. Also on record: species or system Male Sprague-Dawley rats. Conditions: for Bmax ± SEM of [3H] hemicholinium-3 binding / Kd: rat brain cortex; for Kd: Kd of the radioligand, read-out: Kd ± SEM of [3H] hemicholinium-3 binding. An excerpt:
Another measure of cholinergic activity is the binding of the radioligand [^3 H] hemicholinium-3, ([^3 H] HC-3) which labels the carrier that mediates choline transport. […] Therefore, the stimulation of [^3 H] HC-3 binding in vitro after treatment with drugs in vivo is also a marker for increased cholinergic activity, predictive of enhanced cognition in treated animals.
The pharmacological properties of these compounds as enhancers of memory and cognition and their relative potencies may be measured through their effect on neuro-transmitters in the brain. Since drugs that block GABA inhibition in the cholinergic neurons of the basal forebrain nuclei will stimulate cholinergic firing, thus stimulating memory, the capacity of the drugs to enhance cognition can be assessed by measuring the increase in cholinergic firing rate. The increase in cholinergic firing rate is measured indirectly by measuring choline uptake or [^3 H] hemicholinium-3 binding in brain cells taken from treated animals.
To test for [^3 H] hemicholinium-3 binding in brain cells from the brain cortex, drugs were dissolved in saline by sonication. Male Sprague-Dawley rats were dosed i.p. and sacrificed by decapitation 60 min after injection. The brains were removed and dissected, and tissue was homogenized in 20 volumes of ice-cold buffer and stored frozen until assayed. Binding was measured by incubating the tissue with varying concentrations of [^3 H]hemicholinium-3 in an isotonic Tris buffer (pH 7.4) for 60 min at room temperature. The incubation was terminated by rapid filtration through Whatman GF/B filters. After drying, the filters were placed in scintillation cocktail and radioactivity was determined using a Beckman scintillation counter. In two experiments, the values for the Kd and Bmax were determined by nonlinear curve-fitting and the average values for samples of 3 or more animals reported.

The test system of the next series is hippocampal slice. Kind of series: Electrophysiological assay of long term potentiation of the hippocampal slice. The text has this: (§1) Experiments also compared 5-(3-fluorophenyl)-2,4-dimethyl-3H-1,2,4-triazole-3-thione, a compound of formula I, with a series of β-carbolines in an electrophysiological assay system involving long term potentiation of the hippocampal slice.

For series [4], the system named is scopolamine-induced memory deficit in rats. As to the kind of experiment: Working memory in the T-maze, rats treated with scopolamine. The class given is in vivo, Male Sprague-Dawley rats. The following applies: for Number of errors (12 = chance response), T-maze: 24 trials, mean ± SEM, n = 12. The procedure: The maze used has the shape of a T with alleys 16 cm wide and side walls 20 cm high, the main arm being 65 cm long and the two side arms 45 cm long. Male Sprague-Dawleyrats are maintained on a 23 hour food deprivation schedule and are tested each day (Monday-Friday), each trial in the maze consisting of two runs. The rat starts at the end of the main arm and runs to the choice point where it must turn either left or right. The first is a forced run where one arm of the T-maze has been blocked off at the choice point. The remaining arm has a bowl of sweetened condensed milk as reward. On the second run the rat has a free choice of arms and learns by experience that food reward is to be found down the arm not visited on the first run. Trials are run at 30-second intervals, and the arm choice on the forced run is varied at random between trials. Arm entry is defined by the rat's placing all four paws in the arm, and incorrect selection of the arm is scored as an error. Noncompleted trials, where the rat has not made a choice within 3 minutes, are included as errors.5-(3-Fluorophenyl)-2,4-dimethyl-3H-1,2,4-triazole-3-thione is administered one hour before the first trial of each session. Impairment of performance is achieved for testing the compound of this invention in two different ways.
In the trials summarized in Table 2, the amnestic muscarinic antagonist scopolamine is administered subcutaneously at a dose of 0.15 mg/kg 15-minutes before the first trial, and there is a delay of 5-10 seconds after the forced run before the second run of the trial. […] All values are expressed as the mean number of errors per block of twenty-four trials with groups of 12 animals±the standard error of the mean. For this test, the number of errors expected by random response, i.e., the selection of the correct arm 50% of the time, is 12.

In another series the test system is benzodiazepine receptor. Kind of series: Inverse agonism at the benzodiazepine receptor, in the hippocampal slice tests. The class given is cell-based. The following applies: in these tests.
Source text: as §1

Series [5] concerns high affinity choline uptake (HACU). Conditions: cited from earlier work; for effect on HACU: acute administration i.p.; for effect on cortical or hippocampal HACU: after in vivo administration.
Where [6] appears, read: 1 mg/kg i.p., n = 4, 60 min after injection.
[7] abbreviates: 2.5 mg/kg i.p., n = 4, 60 min after injection.
The mark [8] stands for this setting: 25 mg/kg i.p., n = 3, 60 min after injection.
Setting [9] is: 25 mg/kg i.p., n = 3, vs saline (Bmax 11.9).
The mark [10] stands for this setting: 5 mg/kg i.p., n = 7, 60 min after injection.
Where [11] appears, read: higher concentrations / high doses.

SMILES strings stand for the structures. Like-named read-outs stand apart in the source and are kept apart here.

For orientation: Kd means the concentration at which binding is half-saturated.

For `CC(=C(CCOC(=O)C(C)C)SSC(CCOC(=O)C(C)C)=C(C)N(C=O)Cc1cnc(C)nc1N)N(C=O)Cc1cnc(C)nc1N` (stereo in doubt) [sulbutiamine], the “hippocampal high affinity choline uptake” value in series [1] was “increased”. In addition, in the series with memory in mice, the “performance in operant conditioning memory task” value is listed as “performance was enhanced”.
For the molecule `Cn1nc(-c2cccc(F)c2)n(C)c1=S` [5-(3-Fluorophenyl)-2,4-dimethyl-3H-1,2,4-triazole-3-thione], the “Number of errors (5 = chance response), 0-Second Delay” value in series [2] (1 mg/kg) is 0.50 ± 0.26; in series [2] (5 mg/kg), 0.67 ± 0.33; in series [2] (10 mg/kg), 0.58 ± 0.19. Further, the “Number of errors (5 = chance response), 60-Second Delay” value was 4.42 ± 0.47 in series [2] (1 mg/kg, * p < 0.05 vs 0 seconds delay); 2.33 ± 0.50 in series [2] (5 mg/kg, * p < 0.05 vs 0 seconds delay); 1.75 ± 0.43 in series [2] (10 mg/kg). For the same molecule, the “reversal of time dependent deficit in the T-maze” value in series [2] (60-second delay) was “effectively reverses the time dependent deficit”. For the same molecule, the “Bmax ± SEM of [3H] hemicholinium-3 binding” value (“Bmax ± SEM” for short) in series [3] (setting [6]) stood at 20.3 ± 1.2 fmol/mg Protein; in series [3] (setting [7]), 15.2 ± 3.0 fmol/mg Protein. For the same molecule, the “% Increase in Bmax” value in series [3] (1 mg/kg i.p., n = 4, vs saline (Bmax 9.7)) amounted to 109%; in series [3] (2.5 mg/kg i.p., n = 4, vs saline (Bmax 9.7)), 57%. The values for the Kd in series [3] (setting [6]) and in series [3] (setting [7]) were 3.8 ± 0.6 nM and 6.5 ± 1.8 nM, respectively. Further, in the series with hippocampal slice, the “epileptiform activity in the hippocampal slice” value (shortened to “epileptiform activity”) is “did not produce the epileptiform activity”. The “Number of errors (12 = chance response), T-maze” value in series [4] (1 mg/kg with scopolamine 0.15 mg/kg, * p < 0.05 vs saline) came to 5.0 ± 0.26; in series [4] (5 mg/kg with scopolamine 0.15 mg/kg, + p < 0.05 vs scopolamine) it was 4.0 ± 0.8. Moreover, the “reversal of scopolamine-induced memory deficit in the T-maze” value in series [4] (5 mg/kg) is “reverses the scopolamine-induced memory deficit”.
Take `Cn1nc(-c2cccc(C(F)(F)F)c2)n(C)c1=S` [5-(3-Trifluoromethylphenyl)-2,4-dimethyl-3H-1,2,4-triazole-3-thione]: in series [3] (setting [8]), the “Bmax ± SEM” value is 16.0 ± 3.0 fmol/mg Protein and the equilibrium dissociation constant (Kd) was 1.5 ± 0.1 nM. Moreover, in series [3] (setting [9]), the “% Increase in Bmax” value was 35%.
On the same counts, the results for `Cn1c(-c2ccccc2)n[nH]c1=S` [5-Phenyl-4-methyl-3H-1,2,4-triazole-3-thione] are 18.7 ± 3.2 fmol/mg Protein, 2.14 ± 0.7 nM and 57%.
For the molecule `Cn1nc(-c2ccccc2)n(C)c1=S` [5-phenyl-2,4-dimethyl-3H-1,2,4-triazole-3-thione], in series [3] (setting [10]), the “Bmax ± SEM” value was found to be 19.0 ± 3.4 fmol/mg Protein and the Kd worked out at 2.8 ± 0.5 nM. For the same molecule, in series [3] (5 mg/kg i.p., n = 7, vs saline (Bmax 11.9)), the “% Increase in Bmax” value was determined as 60%.
On to `CNC(=O)c1cc2c(cn1)[nH]c1ccccc12` [N-methyl-β-carboline-3-carboxamide], for which, in the series with benzodiazepine receptor, the inverse agonist character result is “partial inverse agonist”. For the same molecule, the “epileptiform activity” value with hippocampal slice is given as “produced epileptiform activity”.
For `CN1[C@@H]2C[C@@H](OC(=O)[C@H](CO)c3ccccc3)C[C@H]1[C@@H]1O[C@@H]12` [Scopolamine, reference compound], the “Number of errors (12 = chance response), T-maze” value in series [4] (scopolamine 0.15 mg/kg s.c. alone, ** p < 0.01 vs saline) was determined as 6.9 ± 0.7.
For the molecule `CN(C)CCC=C1c2ccccc2CCc2ccccc21` [amitriptyline], the “effect on HACU” value in series [5] is “no effect”.
Take `CNCCCN1c2ccccc2CCc2ccccc21` [desipramine]: the “effect on HACU” value in series [5] was “no effect”.
For `CCOC(=O)c1cc2c(cn1)[nH]c1ccccc12` [ethyl β-carboline-3-carboxylate], in the series on benzodiazepine receptor, the inverse agonist character result is “full inverse agonists”. In addition, the “epileptiform activity” value in the series with hippocampal slice (setting [11]) was “produced epileptiform activity”.
`CN(C)CCCN1c2ccccc2CCc2ccccc21` [imipramine]: the “effect on HACU” value in series [5] is given as “no effect”.
For `CCc1c(C(=O)OC)ncc2[nH]c3cc(OC)c(OC)cc3c12` [methyl 6,7-dimethoxy-4-ethyl-β-carboline-3-carboxylate], in the series on benzodiazepine receptor, the inverse agonist character result is given as “full inverse agonists”. In the series with hippocampal slice (setting [11]), the “epileptiform activity” value is recorded as “produced epileptiform activity”.
As to `COC(=O)c1cc2c(cn1)[nH]c1ccccc12` [methyl β-carboline-3-carboxylate], in the series on benzodiazepine receptor, the inverse agonist character result is “full inverse agonists”. The “epileptiform activity” value in the series on hippocampal slice (setting [11]) is recorded as “produced epileptiform activity”.
On to `Cc1cc(-c2ccccc2)nnc1NCCN1CCOCC1` [minaprine], for which the “effect on striatal, cortical and hippocampal HACU” value in series [5] (30 mg/kg acute dose) is “weak effect”.
`NC(=O)CN1CC(O)CC1=O` (stereo not drawn) [oxiracetam]: the “effect on cortical or hippocampal HACU” value in series [5] is recorded as “stimulate cortical or hippocampal HACU”.
For the molecule `CC(C)(CO)[C@@H](O)C(=O)NCCCC(=O)O` [pantoyl-GABA], in series [5], the “effect on cortical or hippocampal HACU” value is on record as “stimulate cortical or hippocampal HACU”.
In the case of `CC(C)N(CCNC(=O)CN1CCCC1=O)C(C)C` [pramiracetam], the “effect on cortical or hippocampal HACU” value in series [5] is given as “stimulate cortical or hippocampal HACU”.
Regarding `CCOc1ccccc1OCC1CNCCO1` (stereo not drawn) [viloxazine], in series [5], the “effect on HACU” value is on record as “no effect”.
